Earlier results on one substance are cited in patent US20070269404A1, “Controlling Sugar Feeding Insects” (Westham Ltd., priority 2006, published 2007).

This data set relates to birds and mammals. As to conditions: Williams et al. 2003.

In the case of Spinosad, the “toxicity to birds and mammals” value was “very little toxicity”.
